From patent US20180371076A1, “MATERNAL TH17 CELLS AND PSYCHIATRIC DISORDERS” (New York University, priority 2017, published 2018)
Entries after “also recorded” stand apart in the source; their conditions may differ.

Key:
IL-17a = IL-17a secretion by ex vivo cultured mononuclear cells (PMA/ionomycin); format: cell-based, mouse; conditions: vs PBS
Method: Cell preparation, Flow cytometry, ELISA. Embryos at each implantation site were dissected in ice-cold HBSS containing Ca^2+ and Mg^2+. Myometrium was first peeled off of the decidua and embryos were discarded. Dissected decidual and placental tissues were then minced and enzymatically dissociated in HBSS containing 0.28 Wunsch units (WU)/mL Liberase (Roche) and 30 μg/ml DNase I (Roche) for 30 min at 37° C. with intermittent mixing. Digested tissues were washed in PBS containing 5 mM EDTA and 5% fetal bovine serum and then incubated again in the same buffer for 15 min at 37° C. prior to filtration through a cell strainer. After separation on a discontinuous 40% & 80% Percoll gradient, the mononuclear cell fraction was treated with ACK lysis buffer (Lonza). Mononuclear cells (1×10^6 cells/mL) were stimulated with phorbol 12-myristate 13-acetate (PMA, 50 ng/mL; Sigma), ionomycin (500 ng/mL; Sigma) in T cell media: RPMI 1640 (Invitrogen) supplemented with 10% (v/v) heat-inactivated FBS (Hyclone), 50 U penicillin-streptomycin (Invitrogen), 2 mM glutamine, and 50 μM β-mercaptoethanol. Cell culture supernatant was used for ELISA analyses. For flow cytometry, cells were incubated for 5 h with PMA, ionomycin and GolgiStop (BD). […] For ELISA with sera and placenta/decidua extract, IL-6 (Ebioscience), IL-17a (Biolgened), and IL-10 (BD) were measured according to the manufacturer's protocol. […]

TNF-α = TNF-α ELISA of maternal serum; format: in vivo, mouse; conditions: poly(I:C) at E12.5, 3 h, vs PBS
Method: (§1) Cell preparation, Flow cytometry, ELISA Embryos at each implantation site were dissected in ice-cold HBSS containing Ca2+ and Mg2+ (Gibco). Myometrium was first peeled off of the decidua and embryos were discarded. Dissected decidual and placental tissues were then minced and enzymatically dissociated in HBSS containing 0.28 Wunsch units (WU)/mL Liberase (Roche) and 30 μg/mL DNase I (Roche) for 30 min at 37° C. with intermittent mixing. Digested tissues were washed in PBS containing 5 mM EDTA and 5% fetal bovine serum and then incubated again in the same buffer for 15 min at 37° C. prior to filtration through a cell strainer. […] Intracellular cytokine staining was performed according to the manufacturer's protocol (Cytofix/Cytoperm buffer set from BD with Pacific Blue-conjugated CD4, FITC or PerCP-Cy5.5-conjugated CD8, APC4 Cy7-conjugated TCR-β, PE-Cy7-conjugated anti-IL-17a, PE-conjugated anti-IFN-γ, PECy7-conjugated anti-CD25 and PE-conjugated Foxp3 (eBioscience). LSR II (BD Biosciences) and FlowJo software (Tree Star) were used for flow cytometry and analysis. Dead cells were excluded using the Live/Dead fixable aqua dead cell stain kit (Invitrogen). For ELISA with sera and placenta/decidua extract, IL-6 (Ebioscience), IL-17a, TNF-α, IL-1β, IFN-β (Biolgened), and IL-10 (BD) were measured according to the manufacturer's protocol.

IFN-β = IFN-β ELISA of maternal serum; format: in vivo, mouse; conditions: poly(I:C) at E12.5, 3 h, vs PBS
Method: as §1

IL-17a mRNA = assay: Real-time PCR of IL-17a mRNA (placenta/decidua mononuclear cells, fetal brain); format: cell-based, mouse
[1] = Properties of the litter (gender ratio, litter size, offspring weight); format: in vivo, mouse; conditions: PBS vs poly(I:C), control vs anti-IL-17a treated dams
Th17 cells = assay: Flow cytometry of placenta/decidua CD4+ T cells: Th17; format: in vivo, mouse; conditions: poly(I:C) vs PBS treatment, pregnant dams
Method: as §1

poly(I:C)
IL-17a secretion by placenta/decidua-associated mononuclear cells (IL-17a; cells from poly(I:C)-treated dams, ex vivo PMA and ionomycin): increased IL-17a secretion; also recorded: enhanced secretion of IL-17a
IL-17a secretion by small intestine mononuclear cells (IL-17a; cells from poly(I:C)-treated pregnant dams): did not exhibit higher levels of IL-17a secretion; also recorded: did not secrete more IL-17a
serum TNF-α (TNF-α): strong induction
serum IFN-β (IFN-β): strong induction
IL-17a mRNA in placenta- and decidua-associated mononuclear cells (IL-17a mRNA; isolated at E14.5, cultured 24 h): strongly up-regulated
IL-17a mRNA in fetal brain at E14.5 (IL-17a mRNA; regardless of poly(I:C) injection): not detected
gender ratios, litter sizes and weights [1]: not affected
placenta/decidua-associated Th17 cells (Th17 cells): increased
